Key:
[1] = molecular target: T1, CFTR in rabbit forniceal and palpebral conjunctiva (Oryctolagus cuniculus, UniProt Q00554); experiment: Short-circuit current in freshly isolated conjunctiva, CFTR; assay type: biochemical; settings: ex vivo rabbit conjunctiva
T1 construct: a sheet of forniceal and palpebral conjunctiva was dissected; from tissue; host or cells: freshly isolated rabbit forniceal and palpebral conjunctiva in an Ussing chamber
Experimental: Short-circuit current was measured in freshly isolated rabbit conjunctiva, as described[16] with modification. Rabbits were euthanized by injection of 150 mg/kg euthasol into the marginal ear vein. The entire eyeball with eyelids intact was removed from the orbit to preserve conjunctival epithelial integrity. Within 10 minutes, a sheet of forniceal and palpebral conjunctiva was dissected, mounted onto a P2304 tissue slider (Physiologic Instruments, San Diego, CA, USA), and placed into the Ussing chamber. The apical and basolateral chambers contained (in mM): 120 NaCl, 3 KCl, 1 CaCl2, 1 MgCl2, 10 glucose, 25 NaHCO3, and 5 HEPES, pH 7.4. […] Hemichambers were connected to a DVC-1000 voltage clamp (World Precision Instruments Inc., Sarasota, FL, USA) via Ag/AgCl electrodes and 3 M KCl agar bridges.

[2] = molecular target: T2, CFTR chloride conductance at the rabbit ocular surface (Oryctolagus cuniculus, UniProt Q00554); experiment: Ocular surface potential difference (PD) in vivo, CFTR
T2 construct: from tissue; host or cells: ocular surface (cornea, bulbar and palpebral conjunctiva) of living anesthetized rabbits
T2 sequence (Q00554 whole entry): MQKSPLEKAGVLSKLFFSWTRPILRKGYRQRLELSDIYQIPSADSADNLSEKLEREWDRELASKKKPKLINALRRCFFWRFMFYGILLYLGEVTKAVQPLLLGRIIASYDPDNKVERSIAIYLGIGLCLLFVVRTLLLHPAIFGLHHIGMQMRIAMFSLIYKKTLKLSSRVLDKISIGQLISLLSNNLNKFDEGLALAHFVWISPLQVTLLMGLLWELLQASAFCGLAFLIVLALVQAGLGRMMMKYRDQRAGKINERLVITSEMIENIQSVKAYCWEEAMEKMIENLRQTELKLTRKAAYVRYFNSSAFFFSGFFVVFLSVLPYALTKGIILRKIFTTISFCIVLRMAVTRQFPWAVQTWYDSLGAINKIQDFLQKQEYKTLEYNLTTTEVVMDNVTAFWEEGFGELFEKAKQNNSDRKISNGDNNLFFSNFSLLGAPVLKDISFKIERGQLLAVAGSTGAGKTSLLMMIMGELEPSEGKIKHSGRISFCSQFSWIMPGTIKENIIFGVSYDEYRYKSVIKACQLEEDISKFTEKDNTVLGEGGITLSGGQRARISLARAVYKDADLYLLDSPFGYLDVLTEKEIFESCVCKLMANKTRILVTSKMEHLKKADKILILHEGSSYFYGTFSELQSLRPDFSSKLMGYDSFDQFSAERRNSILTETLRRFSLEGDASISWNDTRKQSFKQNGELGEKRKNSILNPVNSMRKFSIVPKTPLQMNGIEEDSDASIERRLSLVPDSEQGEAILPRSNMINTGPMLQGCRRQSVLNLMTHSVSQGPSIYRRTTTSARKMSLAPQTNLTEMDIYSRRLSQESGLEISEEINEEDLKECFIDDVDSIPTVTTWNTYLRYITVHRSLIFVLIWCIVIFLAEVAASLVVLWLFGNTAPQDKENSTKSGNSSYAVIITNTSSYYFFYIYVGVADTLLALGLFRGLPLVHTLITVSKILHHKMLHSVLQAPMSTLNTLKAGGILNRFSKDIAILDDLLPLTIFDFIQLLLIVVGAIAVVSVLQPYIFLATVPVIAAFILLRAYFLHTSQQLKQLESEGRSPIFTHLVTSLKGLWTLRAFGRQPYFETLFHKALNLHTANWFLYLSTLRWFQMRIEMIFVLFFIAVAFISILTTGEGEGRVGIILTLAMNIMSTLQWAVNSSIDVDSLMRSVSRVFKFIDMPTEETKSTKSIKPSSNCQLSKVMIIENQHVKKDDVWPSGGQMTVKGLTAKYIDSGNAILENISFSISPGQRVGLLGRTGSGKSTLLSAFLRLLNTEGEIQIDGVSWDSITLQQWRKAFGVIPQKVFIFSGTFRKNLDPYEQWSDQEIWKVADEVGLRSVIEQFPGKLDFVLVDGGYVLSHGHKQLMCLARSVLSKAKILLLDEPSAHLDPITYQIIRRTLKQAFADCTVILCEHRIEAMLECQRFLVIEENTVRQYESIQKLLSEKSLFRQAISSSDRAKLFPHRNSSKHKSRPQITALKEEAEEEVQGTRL
Experimental: (§1) Open-circuit transepithelial potential difference (PD, in mV) at the ocular surface was measured continuously in anesthetized rabbits using a procedure modified from that established in mice.[8] Rabbits were intubated and anesthetized with isoflurane, and respiratory rate, blood pressure, and body temperature were monitored. For PD recording, solutions (see below) were serially perfused at 10 mL/min through PE-90 plastic tubing using a gravity multireservoir pinch-valve system (ALA Scientific, Westbury, NY, USA) and a variable-flow peristaltic pump (medium flow model; Thermo Fisher Scientific, Fair Lawn, NJ, USA). A perfusion catheter was fixed onto an adjustable stereotaxic frame with the tip immersed in solution contacting the ocular surface, as diagrammed in Figure 2A. Excess fluid was aspirated by continuous suction (low-powered wall vacuum) using 1/8-inch tubing (inner diameter 3/32 inch) placed 3 mm from the lateral canthus to maintain near-constant perfusate volume in contact with cornea, bulbar conjunctiva, and palpebral conjunctiva without fluid runoff. The measuring electrode contacted the perfusion catheter and was connected to a high-impedance voltmeter (IsoMilivolt Meter; World Precision Instruments, Sarasota, FL, USA). The reference electrode was grounded using a winged, 25-gauge needle filled with normal saline inserted subcutaneously in the abdomen. […]

[3] = test system: lacrimal gland ablation models in mice; design: method as in PMID 26842854; settings: cited from earlier work
tear volume in mice = settings: delivered topically; cited from earlier work
human wildtype CFTR = settings: cell cultures, cited from earlier work
dry eye = test system: dry eye; design: method as in PMID 15502479; settings: United States; cited from earlier work
ENaC [4] = experiment: Ocular surface potential difference (PD) in vivo, amiloride-sensitive sodium channel; settings: rabbit in vivo, amiloride 100 μM, average
Experimental: as §1

ENaC [5] = experiment: Short-circuit current in freshly isolated conjunctiva, amiloride; assay type: biochemical; settings: ex vivo rabbit conjunctiva, 10 μM
Experimental: Short-circuit current was measured in freshly isolated rabbit conjunctiva, as described[16] with modification. Rabbits were euthanized by injection of 150 mg/kg euthasol into the marginal ear vein. The entire eyeball with eyelids intact was removed from the orbit to preserve conjunctival epithelial integrity. Within 10 minutes, a sheet of forniceal and palpebral conjunctiva was dissected, mounted onto a P2304 tissue slider (Physiologic Instruments, San Diego, CA, USA), and placed into the Ussing chamber. The apical and basolateral chambers contained (in mM): 120 NaCl, 3 KCl, 1 CaCl2, 1 MgCl2, 10 glucose, 25 NaHCO3, and 5 HEPES, pH 7.4. Solutions were bubbled with 95% O2/5% CO2 and maintained at 37°C. Hemichambers were connected to a DVC-1000 voltage clamp (World Precision Instruments Inc., Sarasota, FL, USA) via Ag/AgCl electrodes and 3 M KCl agar bridges.

T1 sequence (Q00554 whole entry): as above

CFTRinh-172
Effect on increases in short-circuit current ([1]; CFTR inhibitor added last): inhibited | Reversal of PD changes ([2]; CFTRinh-172 10 μM in final perfusion solution): largely reversed

CCN(CC)c1nc(Nc2ccccc2)nc(OC(C(F)(F)F)C(F)(F)F)n1 [CFTRact-K089]
Effect on pathology when administered after development of dry eye [3]: reversed pathology | Effect on corneal epithelial disruption ([3]; three times daily): prevented corneal epithelial disruption | Effect on tear volume ([3]; three times daily): normalized tear volume | Duration of increase in tear volume (tear volume in mice): 4 h | Effect on tear volume (tear volume in mice): doubled tear volume | Extent of CFTR activation (human wildtype CFTR): fully activated CFTR | EC50 (human wildtype CFTR; read-out: EC50 of CFTR activation): ~250 nM

O=c1ccn([C@@H]2O[C@H](COP(=O)(O)OP(=O)(O)OP(=O)(O)OP(=O)(O)OC[C@H]3O[C@@H](n4ccc(=O)[nH]c4=O)[C@H](O)[C@@H]3O)[C@@H](O)[C@H]2O)c(=O)[nH]1 [diquafosol]
Efficacy in phase III trials (dry eye): did not show efficacy

N=C(N)NC(=O)c1nc(Cl)c(N)nc1N [amiloride]
Depolarization of ocular surface PD (ENaC [4]): ~5 mV | Effect on short-circuit current (ENaC [5]): no amiloride effect | Effect on short-circuit current (ENaC [5]; listed as Amiloride): no effect

C=C[C@@]1(C)CC(=O)[C@]2(O)[C@@]3(C)[C@@H](O)CCC(C)(C)[C@@H]3[C@H](O)[C@H](OC(C)=O)[C@@]2(C)O1 [forskolin]
CFTR activation (short-circuit current) ([1]; high concentration): Maximal CFTR activation | Change in short-circuit current ([1]; low concentration 25 nM): small increase in current | Further change in ocular surface PD on top of CFTRact-K267 ([2]; forskolin 20 μM after 10 μM CFTRact-K267): minimally further increased
